Tests used:
[1] = tested on: Vero E6 cells; details: MTT, no virus
[2] = tested on: normal human bronchial epithelial cells (NHBE); details: MTT
[3] = tested on: infectious SARS-CoV-2; assay: MTT antiviral assay: protection against viral cytopathic effect in Vero E6 cells; type: cell-based
[4] = tested on: infectious SARS-CoV-2; type: cell-based
[5] = molecular target: SARS-CoV-2 M^pro (Severe acute respiratory syndrome coronavirus 2, UniProt P0DTD1); assay: biochemical; type: biochemical; details: for IC50: IC50, inhibition of SARS-CoV-2 Mpro, kinetic assay, 100 nM Mpro, triplicate, footnote a: fluorescence of compound interfered with assay
[6] = tested on: noninfectious SARS-CoV-2 replicon; type: cell-based; details: 5 in combination with remdesivir, MacSynergy II

Row | Compound | EC50 MTT [3] | EC50 Plaque [4] | IC50 [5] [µM] | other results
1 | N#Cc1ccccc1-c1cc(-c2cc(Cl)cc(OCC3CC3)c2)c(=O)n(-c2cccnc2)c1 [Compound 26] |  |  |  | CC50 Vero E6 [1]: no cytotoxicity; CC50 NHBE [2]: no cytotoxicity
2 | O=c1[nH]cc(-c2cc(-c3cc(Cl)cc(OCc4ccccc4Cl)c3)c(=O)n(-c3cccnc3)c2)c(=O)[nH]1 [Compound 21] | lacked antiviral activity | showed activity |  | 
3 | CCCOc1cc(Cl)cc(-c2cc(-c3ccccc3C#N)cn(-c3cccnc3)c2=O)c1 [Compound 5] |  |  |  | factor of improvement in potency ([5]; 5 over 4): ca. 30; antagonism volume [6]: 0 μM^2%; mean synergy volume [6]: 30.8 μM^2%
4 | N#Cc1ccccc1-c1cc(-c2cccc(Cl)c2)c(=O)n(-c2cccnc2)c1 [Compound 2] |  |  | 9.99 ± 2.5 | 
5 | O=c1[nH]cc(-c2cc(-c3cccc(Cl)c3)c(=O)n(-c3cccnc3)c2)c(=O)[nH]1 [Compound 3] |  |  | 6.38 ± 1.21 | 
6 | O=c1[nH]cc(-c2cc(-c3cc(Cl)cc(OCC4CC4)c3)c(=O)n(-c3cccnc3)c2)c(=O)[nH]1 [Compound 24] |  |  |  | fold boost in potency ([5]; 24 vs 11, uracil series): 3
7 | O=c1[nH]cc(-c2cc(-c3cc(Cl)cc(OCc4ccccc4)c3)c(=O)n(-c3cccnc3)c2)c(=O)[nH]1 [Compound 14] | not in the MTT assay | antiviral activity was found |  | 
8 | N#Cc1ccccc1-c1cc(-c2cc(Cl)cc(Cl)c2)c(=O)n(-c2cccnc2)c1 [Compound 4] |  |  | 4.02 ± 1.36 | factor of enhancement in inhibitory activity ([5]; 4 vs 2, addition of second chlorine): ~2
9 | O=c1[nH]cc(-c2cc(-c3cc(Cl)c(F)c(OCc4ccccc4Cl)c3)c(=O)n(-c3cccnc3)c2)c(=O)[nH]1 [Compound 23] | lacked antiviral activity | showed activity |  | 

Source: PMC7931627 (ACS Central Science, 2021)
